Assay results as given in publication PMC8298522 (Scientific Reports, 2021).

System: insulin-positive and insulin-negative pancreatic tumors
Assay type: in vivo
Details: [^68Ga]DOTATOC PET/CT, scan 30 min after injection
Protocol: PET scans were performed after 30 min of injection of the labeled substance via tail vein (10 MBq/mouse) under 2.0% isoflurane anesthesia using a Triumph LabPET12/SPECT4/CT (TriFoil Imaging Inc., Chatsworth, CA, USA)[41].
After completion of the PET/CT procedures, mice were sacrificed by cervical dislocation, followed by immediate resection of the pancreas. Tissues were spread on filter paper and immediately fixed in 10% formalin at 4 °C. For the analysis of pancreatic tumors, serial formalin-fixed paraffin-embedded sections (4-μm thickness) were stained with anti-insulin and anti-glucagon antibody, as previously reported[39]. Briefly, primary rabbit polyclonal antibody was used for insulin detection at an antibody dilution of 1:100 (Cat# sc-9168; Santa Cruz Biotechnology, USA) and a mouse monoclonal antibody glucagon detection at an antibody dilution of 1:100 (Cat# ab10988; Abcam, USA). The secondary antibodies utilized for the assay were Alexa Fluor 488 goat anti-rabbit antibody at 1:200 dilution (Cat# A-11008; Thermo Fisher Scientific, USA) and Alexa Fluor 546 goat anti-mouse antibody at 1:200 dilution (Cat# A-11030; Thermo Fisher Scientific, USA), respectively. The slides were prepared for analyses under a fluorescence microscope (BZ-X700; Keyence, Osaka, Japan).

SMILES: C[C@@H](O)[C@@H]1NC(=O)[C@H](CCCCN)NC(=O)[C@@H](Cc2c[nH]c3ccccc23)NC(=O)[C@H](Cc2ccc(O)cc2)NC(=O)[C@@H](NC(=O)[C@@H](Cc2ccccc2)NC(=O)CN2CCN(CC(=O)[O-])CCN(CC(=O)[O-])CCN(CC(=O)[O-])CC2)CSSC[C@@H](C(=O)N[C@H](CO)[C@@H](C)O)NC1=O.[68Ga+3] [[^68Ga]DOTATOC, ^68Ga-labeled 1,4,7,10-tetraazacyclododecane-N,N′,N″,N″-tetraacetic acid-d-Phe^1-Tyr^3-octreotide]
- Specificity for detecting insulin-positive tumors: 0%
